Tested on: human breast carcinoma cells (MCF7)
Test: Northern analysis of survivin mRNA after doxorubicin
Type: cell-based
Conditions: MCF7, 0.5 ug/mL doxorubicin, as early as twelve hours
Protocol: MCF-7 cells were maintained in RPMI-1640 supplemented with 10% fetal bovine serum and 100 units/ml of penicillin and streptomycin. The human melanoma cell line CaCl, and the derivative clone expressing the HPV E6 gene, were cultured as described (Ahn et al., Oncogene). The human osteosarcoma cell lines Saos-2 and U2-OS (kindly provided by Peter Adams, Fox Chase Cancer Center), the murine p21 knock-out fibroblasts (kindly provided by James Sherley, MIT) and the human lung adenocarcinoma cell line H1299 were cultured in DMEM supplemented with 10% fetal bovine serum and 100 units/ml of penicillin and streptomycin. Murine Va15 cells, containing the temperature-sensitive Valine 135 allele of p53, were maintained as described (Wu, et al., Genes & Devel. 7:1126–1132, 1993). All cells were grown at 37° C. […] For treatment with ultra-violet light, cells were irradiated with 0–10 J/m2 (as noted) of UV-C with a Spectroline X series ultraviolet lamp, and output was monitored with a traceable UV light meter (Fisher Scientific). […]
The full-length coding region for survivin was generated by reverse transcription-polymerase chain reaction (RT-PCR) using 5 ug of total RNA from the H1299 human lung adenocarcinoma cell line, using the Access RT-PCR kit (Promega) and the following oligonucleotides: forward 5′ […] […] Autoradiographs were quantitated using NIH image software. […]

## COc1cccc2c1C(=O)c1c(O)c3c(c(O)c1C2=O)C[C@@](O)(C(=O)CO)C[C@@H]3O[C@H]1C[C@H](N)[C@H](O)[C@H](C)O1 [adriamycin, doxorubicin]
  mRNA levels for survivin: marked decreases in mRNA levels for survivin

Source: patent US7053194B2, “Compositions and methods for p53-mediated repression of gene expression” (Fox Chase Cancer Center, priority 1999, dated 2006)
